Structures can show the parent of a compound that is named as a salt.

The values below come from patent publication US20240368127A1, “HSD17B13 INHIBITORS AND USES THEREOF” (FL2022-001, Inc., priority 2021, published 2024).

This experiment addresses T1, Recombinant human HSD17B13 enzyme (Homo sapiens, UniProt Q7Z5P4).
T1 sequence (Q7Z5P4 20-300): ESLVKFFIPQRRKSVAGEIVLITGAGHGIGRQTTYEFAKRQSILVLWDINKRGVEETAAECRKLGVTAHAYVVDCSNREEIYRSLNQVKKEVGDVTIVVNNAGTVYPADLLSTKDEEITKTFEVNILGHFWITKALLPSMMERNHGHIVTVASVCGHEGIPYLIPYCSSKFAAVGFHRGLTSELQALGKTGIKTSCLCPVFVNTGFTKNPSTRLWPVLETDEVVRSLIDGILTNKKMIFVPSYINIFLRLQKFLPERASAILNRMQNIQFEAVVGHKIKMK
Kind of experiment: HSD17b13 NAD(P)H-Glo biochemical assay. Conditions: 50 μM estradiol, 1 mM NAD+, 37° C. for 3 hours; read-out: HSD17β13 IC50. An outline of the steps:
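Enzyme preincubated with inhibitor 20 min at RT in 20 mM Tris pH7.4, 0.002% Tween-20, 0.02% BSA, then reacted 3 h at 37° C with 50 μM estradiol and 1 mM NAD+ (final). NADH formation read by NAD(P)H-Glo luminescence after 1 h at RT.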

On to `Cn1nc(-c2cc(C(F)(F)F)c(F)c(O)c2F)c2cnc(N3CCC[C@@H]3Cc3ccccc3)nc21` [Compound 5.30, (R)-3-(6-(2-Benzylpyrrolidin-1-yl)-1-methyl-1H-pyrazolo[3,4-d]pyrimidin-3-yl)-2,6-difluoro-5-(trifluoromethyl)phenol], for which the IC50 was at most 100 nM.

Take `CS(=O)(=O)N1CCN(c2ccc(-n3nnc4cc(F)c(O)c(F)c43)cc2)[C@H](Cc2ccccc2)C1` [Compound 1, (R)-1-(4-(2-Benzyl-4-(methylsulfonyl)piperazin-1-yl)phenyl)-5,7-difluoro-1H-benzo[d][1,2,3]triazol-6-ol]: the IC50 was at most 100 nM.

Regarding `Cc1nn(-c2ncc(Cl)c(O)c2F)c2cnc(N3CCN(S(C)(=O)=O)C[C@H]3Cc3ccccc3)cc12` [Compound 2.17, (R)-2-(5-(2-Benzyl-4-(methylsulfonyl)piperazin-1-yl)-3-methyl-1H-pyrazolo[3,4-c]pyridin-1-yl)-5-chloro-3-fluoropyridin-4-ol], the IC50 lay within 100 to 1000 nM.

In the case of `Cn1nc(-c2cc(C(F)(F)F)c(F)c(O)c2F)c2cnc(C3CCCCN3Cc3ccccc3)nc21` (stereo not shown) [Compound 14, 3-(6-(1-Benzylpiperidin-2-yl)-1-methyl-1H-pyrazolo[3,4-d]pyrimidin-3-yl)-2,6-difluoro-5-(trifluoromethyl)phenol hydrochloride], the IC50 lay in the range of 100 to 1000 nM.

On to `CC(=O)N1CCN(c2ncc3c(-c4cc(C(F)(F)F)c(F)c(O)c4F)nn(C)c3n2)C[C@H]1Cc1ccccc1` [Compound 6.05, (R)-1-(2-Benzyl-4-(3-(2,4-difluoro-3-hydroxy-5-(trifluoromethyl)phenyl)-1-methyl-1H-pyrazolo[3,4-d]pyrimidin-6-yl)piperazin-1-yl)ethan-1-one], for which the IC50 was at most 100 nM.

With `Cc1c2cc(N3CCN(S(C)(=O)=O)C[C@H]3Cc3ccccc3)ccc2nn1-c1cc(O)cc(C(F)(F)F)n1` [Compound 2.30, (R)-2-(5-(2-Benzyl-4-(methylsulfonyl)piperazin-1-yl)-3-methyl-2H-indazol-2-yl)-6-(trifluoromethyl)pyridin-4-ol], the IC50 lay in the range of 1000 to 30000 nM.

As to `Cn1nc(-c2cc(C(F)(F)F)c(F)c(O)c2F)c2cnc(N3CCOC[C@H]3Cc3ccccc3)nc21` [Compound 5.08, (R)-3-(6-(3-Benzylmorpholino)-1-methyl-1H-pyrazolo[3,4-d]pyrimidin-3-yl)-2,6-difluoro-5-(trifluoromethyl)phenol], the IC50 is at most 100 nM.

As for `Cn1nc(-c2c(C#N)cc(F)c(O)c2F)c2cnc(N3CCN(S(C)(=O)=O)C[C@H]3Cc3ccccc3)nc21` [Compound 11.16, 2-(6-((R)-2-Benzyl-4-(methylsulfonyl)piperazin-1-yl)-1-methyl-1H-pyrazolo[3,4-d]pyrimidin-3-yl)-3,5-difluoro-4-hydroxybenzonitrile], the IC50 was at most 100 nM.

Consider `Cn1nc(-c2cc(C(F)(F)F)c(F)c(O)c2F)c2cnc(NC3(Cc4ccccc4)CCC3)nc21` [Compound 5.27, 3-(6-((1-Benzylcyclobutyl)amino)-1-methyl-1H-pyrazolo[3,4-d]pyrimidin-3-yl)-2,6-difluoro-5-(trifluoromethyl)phenol], for which the IC50 was at most 100 nM.

As for `Cn1nc(-c2cc(C(F)(F)F)c(F)c(O)c2F)c2cnc(N3CCO[C@@H](Cc4cccc(C#N)c4)C3)nc21` [Compound 12.03, (S)-3-((4-(3-(2,4-Difluoro-3-hydroxy-5-(trifluoromethyl)phenyl)-1-methyl-1H-pyrazolo[3,4-d]pyrimidin-6-yl)morpholin-2-yl)methyl)benzonitrile], the IC50 is at most 100 nM.

Consider `C#Cc1cc(-c2nn(C)c3nc(N4CCN(S(C)(=O)=O)C[C@H]4Cc4ccccc4)ncc23)c(F)c(O)c1F` [Compound 11.17, (R)-3-(6-(2-Benzyl-4-(methylsulfonyl)piperazin-1-yl)-1-methyl-1H-pyrazolo[3,4-d]pyrimidin-3-yl)-5-ethynyl-2,6-difluorophenol], for which the concentration for half-maximal inhibition (IC50) is at most 100 nM.

Take `CS(=O)(=O)N1CCN(c2cc3c(N)nn(-c4cc(C(F)(F)F)c(F)c(O)c4F)c3cn2)[C@H](Cc2ccccc2)C1` [Compound 2.23, (R)-3-(3-Amino-5-(2-benzyl-4-(methylsulfonyl)piperazin-1-l)-1H-pyrazolo[3,4-c]pyridin-1-yl)-2,6-difluoro-5-(trifluoromethyl)phenol]: the IC50 was at most 100 nM.

Regarding `Oc1c(F)cc2nnn(-c3ccc(N4CCOC[C@H]4Cc4ccccc4)cc3)c2c1F` [Compound 1.05, (R)-1-(4-(3-Benzylmorpholino)phenyl)-5,7-difluoro-1H-benzo[d][1,2,3]triazol-6-ol], the IC50 lay within 100 to 1000 nM.

In the case of `Cn1nc(-c2cc(C(F)(F)F)c(F)c(O)c2F)c2cnc(N3CCOC[C@@H]3Cc3ccccc3)nc21` [Compound 5.09, (S)-3-(6-(3-Benzylmorpholino)-1-methyl-1H-pyrazolo[3,4-d]pyrimidin-3-yl)-2,6-difluoro-5-(trifluoromethyl)phenol], the IC50 was at most 100 nM.

`Cc1c(F)cc(-c2nn(C)c3nc(N4CCN(S(C)(=O)=O)C[C@H]4Cc4ccccc4)ncc23)c(F)c1O` [Compound 11.20, (R)-3-(6-(2-Benzyl-4-(methylsulfonyl)piperazin-1-yl)-1-methyl-1H-pyrazolo[3,4-d]pyrimidin-3-yl)-2,5-difluoro-6-methylphenol]: the IC50 was at most 100 nM.

For `Cn1nc(-c2cc(C(F)(F)F)c(F)c(O)c2F)c2cnc(N3CCOCC3CN3CCCC3)nc21` (stereo not shown) [Compound 5.29, 2,6-Difluoro-3-(1-methyl-6-(3-(pyrrolidin-1-ylmethyl)morpholino)-1H-pyrazolo[3,4-d]pyrimidin-3-yl)-5-(trifluoromethyl)phenol], the IC50 was 100 to 1000 nM.

For `Cc1nn(-c2ccc(Cl)c(O)c2F)c2cnc(N3CCN(S(C)(=O)=O)C[C@H]3Cc3ccccc3)cc12` [Compound 2.16, (R)-3-(5-(2-Benzyl-4-(methylsulfonyl)piperazin-1-yl)-3-methyl-1H-pyrazolo[3,4-c]pyridin-1-yl)-6-chloro-2-fluorophenol], the IC50 is at most 100 nM.

`Cn1nc(-c2cc(C(F)(F)F)c(F)c(O)c2F)c2cnc(N3CCOCC3Cc3ccccn3)nc21` (stereo not shown) [Compound 15.06, 2,6-Difluoro-3-(1-methyl-6-(3-(pyridin-2-ylmethyl)morpholino)-1H-pyrazolo[3,4-d]pyrimidin-3-yl)-5-(trifluoromethyl)phenol]: the IC50 is at most 100 nM.

In the case of `Cc1nn(-c2cc(C(F)(F)F)cc(O)c2F)c2ccc(N3CCN(S(C)(=O)=O)C[C@H]3Cc3ccccc3)cc12` [Compound 2.28, (R)-3-(5-(2-Benzyl-4-(methylsulfonyl)piperazin-1-yl)-3-methyl-1H-indazol-1-yl)-2-fluoro-5-(trifluoromethyl)phenol], the IC50 is at most 100 nM.

For `Oc1c(F)cc2nnn(-c3ccc(N4CC[C@@H](Cc5ccccc5)C4)cc3)c2c1F` [Compound 1.06, (R)-1-(4-(3-Benzylpyrrolidin-1-yl)phenyl)-5,7-difluoro-1H-benzo[d][1,2,3]triazol-6-ol], the IC50 is at most 100 nM.

As for `Cn1nc(-c2cc(C(F)(F)F)c(F)c(O)c2F)c2cnc(N3CCN(S(C)(=O)=O)[C@@H](Cc4ccccc4)C3)nc21` [Compound 5.14, (S)-3-(6-(3-Benzyl-4-(methylsulfonyl)piperazin-1-yl)-1-methyl-1H-pyrazolo[3,4-d]pyrimidin-3-yl)-2,6-difluoro-5-(trifluoromethyl)phenol], the IC50 was at most 100 nM.

With `CS(=O)(=O)N1CCN(c2cc3c(Cl)nn(-c4cc(C(F)(F)F)c(Cl)c(O)c4F)c3cn2)[C@H](Cc2ccccc2)C1` [Compound 2.22, (R)-3-(5-(2-Benzyl-4-(methylsulfonyl)piperazin-1-yl)-3-chloro-1H-pyrazolo[3,4-c]pyridin-1-yl)-6-chloro-2-fluoro-5-(trifluoromethyl)phenol], the IC50 is at most 100 nM.

As for `Cc1cc(-c2nn(C)c3nc(N4CCN(S(C)(=O)=O)C[C@H]4Cc4ccccc4)ncc23)c(F)c(O)c1F` [Compound 11.08, (R)-3-(6-(2-Benzyl-4-(methylsulfonyl)piperazin-1-yl)-1-methyl-1H-pyrazolo[3,4-d]pyrimidin-3-yl)-2,6-difluoro-5-methylphenol], the IC50 is at most 100 nM.

As to `CNC(=O)N1CCN(c2ncc3c(-c4cc(C(F)(F)F)c(F)c(O)c4F)nn(C)c3n2)C[C@@H]1Cc1ccccc1` [Compound 6.06, (S)-2-Benzyl-4-(3-(2,4-difluoro-3-hydroxy-5-(trifluoromethyl)phenyl)-1-methyl-1H-pyrazolo[3,4-d]pyrimidin-6-yl)-N-methylpiperazine-1-carboxamide], the IC50 is at most 100 nM.

Turning to `COc1ccc(C[C@@H]2COCCN2c2ncc3c(-c4cc(C(F)(F)F)c(F)c(O)c4F)nn(C)c3n2)cc1` [Compound 5.28, (R)-2,6-Difluoro-3-(6-(3-(4-methoxybenzyl)morpholino)-1-methyl-1H-pyrazolo[3,4-d]pyrimidin-3-yl)-5-(trifluoromethyl)phenol], the IC50 is at most 100 nM.

Take `Oc1c(F)cc2nnn(-c3ccc(N4CCC(Cc5ccccc5)CC4)cc3)c2c1F` [Compound 1.08, 1-(4-(4-Benzylpiperidin-1-yl)phenyl)-5,7-difluoro-1H-benzo[d][1,2,3]triazol-6-ol]: the IC50 was at most 100 nM.

Take `Cn1nc(-c2cc(C(F)(F)F)c(F)c(O)c2F)c2cnc(N3CCCCC3Cc3ccccn3)nc21` (stereo not shown) [Compound 5.11, 2,6-Difluoro-3-(1-methyl-6-(2-(pyridin-2-ylmethyl)piperidin-1-yl)-1H-pyrazolo[3,4-d]pyrimidin-3-yl)-5-(trifluoromethyl)phenol]: the IC50 is at most 100 nM.

Take `Oc1c(F)cc2nnn(-c3ccc(N4CC[C@H](Cc5ccccc5)C4)cc3)c2c1F` [Compound 1.07, (S)-1-(4-(3-Benzylpyrrolidin-1-yl)phenyl)-5,7-difluoro-1H-benzo[d][1,2,3]triazol-6-ol]: the IC50 was at most 100 nM.
